This is an account of results in ChEMBL document CHEMBL4507261, “Data for DCP probe A-192621” (2021).

Test [1] has as its target Sigma non-opioid intracellular receptor 1 (Homo sapiens) (UniProt Q99720). To be noted: Compound concentration 10.0 uM.
Test [2] addresses Mu-type opioid receptor (Homo sapiens) (UniProt P35372). To be noted: Compound concentration 10.0 uM.
The target of test [3] is Endothelin receptor type B (Homo sapiens, UniProt P24530). Nature of the test: Eurofins cellular functional assay - Antagonist (EDNRB).
Endothelin receptor type B, sequence (P24530 whole entry): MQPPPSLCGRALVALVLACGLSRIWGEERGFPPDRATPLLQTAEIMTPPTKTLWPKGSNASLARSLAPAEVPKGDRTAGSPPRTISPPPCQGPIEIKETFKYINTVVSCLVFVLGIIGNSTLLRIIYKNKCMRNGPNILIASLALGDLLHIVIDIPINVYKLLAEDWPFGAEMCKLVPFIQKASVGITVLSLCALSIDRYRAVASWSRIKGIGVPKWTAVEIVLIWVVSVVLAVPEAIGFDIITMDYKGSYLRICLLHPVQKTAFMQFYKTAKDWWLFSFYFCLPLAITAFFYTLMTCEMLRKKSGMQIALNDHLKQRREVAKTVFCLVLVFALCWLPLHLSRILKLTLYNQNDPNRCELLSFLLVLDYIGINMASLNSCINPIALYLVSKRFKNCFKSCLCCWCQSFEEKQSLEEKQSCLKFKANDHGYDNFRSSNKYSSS
Test [4] deals with T1, Alpha-2A adrenergic receptor (Homo sapiens) (UniProt P08913).
T1 sequence (whole entry): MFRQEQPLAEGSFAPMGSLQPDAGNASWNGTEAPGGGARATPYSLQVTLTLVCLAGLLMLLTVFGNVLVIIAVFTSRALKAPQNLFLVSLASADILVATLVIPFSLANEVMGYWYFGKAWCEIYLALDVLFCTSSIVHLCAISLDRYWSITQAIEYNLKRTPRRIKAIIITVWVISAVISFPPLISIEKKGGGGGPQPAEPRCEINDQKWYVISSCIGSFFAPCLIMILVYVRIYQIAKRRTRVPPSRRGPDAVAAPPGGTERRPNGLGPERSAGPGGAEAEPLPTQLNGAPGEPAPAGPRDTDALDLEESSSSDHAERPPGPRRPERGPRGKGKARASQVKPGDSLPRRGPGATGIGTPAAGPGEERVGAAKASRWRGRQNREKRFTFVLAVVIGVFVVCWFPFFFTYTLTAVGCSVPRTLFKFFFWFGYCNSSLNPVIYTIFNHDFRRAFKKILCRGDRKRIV
Conditions: Compound concentration 10.0 uM.

Test [5] deals with Delta-type opioid receptor (Homo sapiens) (UniProt P41143). To be noted: Compound concentration 10.0 uM.
Delta-type opioid receptor (Homo sapiens), sequence (P41143 whole entry): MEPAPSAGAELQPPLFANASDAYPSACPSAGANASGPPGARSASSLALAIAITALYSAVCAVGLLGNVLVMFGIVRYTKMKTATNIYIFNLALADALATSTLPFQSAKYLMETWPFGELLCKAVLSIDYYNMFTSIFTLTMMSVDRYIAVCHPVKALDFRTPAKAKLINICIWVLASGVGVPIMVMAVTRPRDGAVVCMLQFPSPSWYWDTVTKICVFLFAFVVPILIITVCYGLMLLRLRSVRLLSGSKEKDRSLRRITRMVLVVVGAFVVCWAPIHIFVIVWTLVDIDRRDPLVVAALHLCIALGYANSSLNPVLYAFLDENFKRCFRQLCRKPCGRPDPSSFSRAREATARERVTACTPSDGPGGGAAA
For test [6], the target named is 5-hydroxytryptamine receptor 2B (Homo sapiens) (UniProt P41595). To be noted: Compound concentration 10.0 uM.
5-hydroxytryptamine receptor 2B (Homo sapiens), sequence (P41595 whole entry): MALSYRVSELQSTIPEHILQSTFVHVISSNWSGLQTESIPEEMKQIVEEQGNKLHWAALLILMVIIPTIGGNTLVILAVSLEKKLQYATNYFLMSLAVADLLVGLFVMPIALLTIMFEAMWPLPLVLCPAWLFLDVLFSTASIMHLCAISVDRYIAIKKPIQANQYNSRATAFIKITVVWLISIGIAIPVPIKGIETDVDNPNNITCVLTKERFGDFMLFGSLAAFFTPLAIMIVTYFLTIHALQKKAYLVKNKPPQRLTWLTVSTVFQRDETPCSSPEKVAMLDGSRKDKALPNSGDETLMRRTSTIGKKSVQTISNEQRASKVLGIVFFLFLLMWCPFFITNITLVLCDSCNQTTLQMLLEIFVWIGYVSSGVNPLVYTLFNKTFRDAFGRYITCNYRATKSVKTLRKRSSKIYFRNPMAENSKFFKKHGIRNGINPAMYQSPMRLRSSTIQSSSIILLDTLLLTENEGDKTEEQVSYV
Test [7] concerns the target T2, 5-hydroxytryptamine receptor 3A (Homo sapiens) (UniProt P46098).
T2 sequence (whole entry): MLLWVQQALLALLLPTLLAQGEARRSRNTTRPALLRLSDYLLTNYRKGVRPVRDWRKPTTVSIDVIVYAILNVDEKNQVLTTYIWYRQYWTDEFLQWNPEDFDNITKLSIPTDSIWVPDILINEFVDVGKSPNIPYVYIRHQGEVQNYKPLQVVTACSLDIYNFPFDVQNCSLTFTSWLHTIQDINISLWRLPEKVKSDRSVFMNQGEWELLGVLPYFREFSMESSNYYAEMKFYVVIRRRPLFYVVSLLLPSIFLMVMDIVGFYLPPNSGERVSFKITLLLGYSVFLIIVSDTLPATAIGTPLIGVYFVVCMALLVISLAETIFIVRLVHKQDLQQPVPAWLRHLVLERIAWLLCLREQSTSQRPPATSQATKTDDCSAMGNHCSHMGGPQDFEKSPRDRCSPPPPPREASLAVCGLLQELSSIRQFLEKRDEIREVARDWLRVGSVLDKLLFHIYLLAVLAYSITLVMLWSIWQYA
Conditions: Compound concentration 10.0 uM.

Test [8] addresses Sodium-dependent serotonin transporter (Homo sapiens) (UniProt P31645). To be noted: Compound concentration 10.0 uM.
Test [9] concerns the target Alpha-1D adrenergic receptor (Homo sapiens) (UniProt P25100). To be noted: Compound concentration 10.0 uM.
The target of test [10] is T3, Alpha-1B adrenergic receptor (Homo sapiens) (UniProt P35368).
T3 sequence (whole entry): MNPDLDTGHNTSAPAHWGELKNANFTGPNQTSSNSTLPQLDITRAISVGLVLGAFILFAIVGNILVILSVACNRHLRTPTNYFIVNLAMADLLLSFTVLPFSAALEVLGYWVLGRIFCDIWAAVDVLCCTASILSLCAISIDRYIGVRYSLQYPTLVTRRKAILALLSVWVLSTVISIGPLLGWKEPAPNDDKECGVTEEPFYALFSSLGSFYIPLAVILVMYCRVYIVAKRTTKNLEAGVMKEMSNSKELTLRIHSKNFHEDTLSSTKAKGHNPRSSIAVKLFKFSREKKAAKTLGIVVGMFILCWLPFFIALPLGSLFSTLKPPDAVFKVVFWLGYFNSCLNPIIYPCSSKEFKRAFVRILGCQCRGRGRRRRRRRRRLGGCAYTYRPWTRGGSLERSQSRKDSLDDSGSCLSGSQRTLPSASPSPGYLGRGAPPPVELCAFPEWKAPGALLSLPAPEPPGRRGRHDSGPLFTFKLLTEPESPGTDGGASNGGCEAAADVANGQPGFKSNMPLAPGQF
Conditions: Compound concentration 10.0 uM.

A further test is filed under the species Rattus norvegicus. To be noted: Compound concentration 10.0 uM.
Test [11] has as its target GABA-A receptor; anion channel (Rattus norvegicus) (UniProt O09028+P15431+P18506+P18508+P19969+P20236+P23574+P23576+P28471+P28473+P30191+P62813+P63079+P63138+Q91ZM7+Q9ES14). Conditions: Compound concentration 10.0 uM.
The target in test [12] is T4, Muscarinic acetylcholine receptor M2 (Homo sapiens) (UniProt P08172).
T4 sequence (whole entry): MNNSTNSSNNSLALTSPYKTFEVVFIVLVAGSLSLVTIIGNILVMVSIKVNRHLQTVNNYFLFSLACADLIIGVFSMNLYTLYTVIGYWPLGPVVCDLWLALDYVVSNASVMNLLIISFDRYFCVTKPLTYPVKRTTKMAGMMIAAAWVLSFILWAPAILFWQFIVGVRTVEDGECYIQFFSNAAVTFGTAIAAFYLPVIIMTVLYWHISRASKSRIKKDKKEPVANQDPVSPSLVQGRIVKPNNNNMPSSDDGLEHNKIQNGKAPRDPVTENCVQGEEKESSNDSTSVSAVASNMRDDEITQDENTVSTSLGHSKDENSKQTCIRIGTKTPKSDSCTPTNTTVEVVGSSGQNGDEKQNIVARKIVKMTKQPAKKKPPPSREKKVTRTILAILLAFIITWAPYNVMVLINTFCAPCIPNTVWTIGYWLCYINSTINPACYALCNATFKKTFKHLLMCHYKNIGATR
To be noted: Compound concentration 10.0 uM.

Test [13] addresses 5-hydroxytryptamine receptor 1B (Homo sapiens) (UniProt P28222). Conditions: Compound concentration 10.0 uM.

Active and inactive are the calls of the source. The rule behind the calls is not given here.

5-hydroxytryptamine receptor 1B (Homo sapiens), sequence (P28222 whole entry): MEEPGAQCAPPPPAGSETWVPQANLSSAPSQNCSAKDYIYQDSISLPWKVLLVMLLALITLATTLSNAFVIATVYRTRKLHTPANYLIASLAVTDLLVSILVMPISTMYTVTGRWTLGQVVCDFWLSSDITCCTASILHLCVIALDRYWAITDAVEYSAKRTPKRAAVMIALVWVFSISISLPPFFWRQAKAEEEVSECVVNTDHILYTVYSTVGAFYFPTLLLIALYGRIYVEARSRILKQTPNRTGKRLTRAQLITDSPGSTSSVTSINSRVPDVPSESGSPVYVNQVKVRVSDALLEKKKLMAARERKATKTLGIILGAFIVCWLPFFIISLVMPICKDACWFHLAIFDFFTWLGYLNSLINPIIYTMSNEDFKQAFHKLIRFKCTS
Sodium-dependent serotonin transporter (Homo sapiens), sequence (P31645 whole entry, looked up): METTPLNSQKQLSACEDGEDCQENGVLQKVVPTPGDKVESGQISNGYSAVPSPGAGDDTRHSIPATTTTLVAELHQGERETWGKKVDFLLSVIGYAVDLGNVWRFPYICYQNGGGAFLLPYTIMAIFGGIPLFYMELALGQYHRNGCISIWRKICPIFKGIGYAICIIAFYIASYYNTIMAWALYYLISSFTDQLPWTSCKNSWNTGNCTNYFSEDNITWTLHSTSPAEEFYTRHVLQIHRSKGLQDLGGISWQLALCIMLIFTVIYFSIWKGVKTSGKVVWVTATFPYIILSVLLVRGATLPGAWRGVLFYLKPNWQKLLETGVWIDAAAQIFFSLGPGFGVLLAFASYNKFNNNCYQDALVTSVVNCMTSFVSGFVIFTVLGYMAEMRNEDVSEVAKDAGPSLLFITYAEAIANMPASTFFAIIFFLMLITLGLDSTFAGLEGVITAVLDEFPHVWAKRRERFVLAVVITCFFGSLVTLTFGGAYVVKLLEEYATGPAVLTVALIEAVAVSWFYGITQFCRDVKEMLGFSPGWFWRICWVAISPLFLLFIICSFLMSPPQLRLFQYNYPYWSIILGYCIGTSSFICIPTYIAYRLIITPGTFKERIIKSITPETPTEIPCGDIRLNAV
Mu-type opioid receptor (Homo sapiens), sequence (P35372 whole entry): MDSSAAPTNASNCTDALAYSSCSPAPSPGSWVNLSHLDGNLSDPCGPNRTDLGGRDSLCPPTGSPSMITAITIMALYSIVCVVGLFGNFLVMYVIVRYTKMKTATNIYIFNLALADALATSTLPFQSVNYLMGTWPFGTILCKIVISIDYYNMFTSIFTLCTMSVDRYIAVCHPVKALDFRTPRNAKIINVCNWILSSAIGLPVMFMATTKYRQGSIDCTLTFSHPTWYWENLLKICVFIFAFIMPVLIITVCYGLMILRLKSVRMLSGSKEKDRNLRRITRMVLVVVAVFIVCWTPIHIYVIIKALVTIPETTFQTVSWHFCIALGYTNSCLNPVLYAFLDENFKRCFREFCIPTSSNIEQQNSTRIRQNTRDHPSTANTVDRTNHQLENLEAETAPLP
Sigma non-opioid intracellular receptor 1 (Homo sapiens), sequence (Q99720 whole entry): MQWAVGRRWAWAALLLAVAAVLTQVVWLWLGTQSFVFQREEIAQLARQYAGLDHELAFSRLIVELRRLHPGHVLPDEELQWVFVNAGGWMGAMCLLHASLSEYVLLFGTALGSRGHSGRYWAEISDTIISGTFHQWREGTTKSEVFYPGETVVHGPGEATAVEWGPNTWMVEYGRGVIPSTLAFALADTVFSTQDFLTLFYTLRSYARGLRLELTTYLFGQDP
Alpha-1D adrenergic receptor (Homo sapiens), sequence (P25100 whole entry): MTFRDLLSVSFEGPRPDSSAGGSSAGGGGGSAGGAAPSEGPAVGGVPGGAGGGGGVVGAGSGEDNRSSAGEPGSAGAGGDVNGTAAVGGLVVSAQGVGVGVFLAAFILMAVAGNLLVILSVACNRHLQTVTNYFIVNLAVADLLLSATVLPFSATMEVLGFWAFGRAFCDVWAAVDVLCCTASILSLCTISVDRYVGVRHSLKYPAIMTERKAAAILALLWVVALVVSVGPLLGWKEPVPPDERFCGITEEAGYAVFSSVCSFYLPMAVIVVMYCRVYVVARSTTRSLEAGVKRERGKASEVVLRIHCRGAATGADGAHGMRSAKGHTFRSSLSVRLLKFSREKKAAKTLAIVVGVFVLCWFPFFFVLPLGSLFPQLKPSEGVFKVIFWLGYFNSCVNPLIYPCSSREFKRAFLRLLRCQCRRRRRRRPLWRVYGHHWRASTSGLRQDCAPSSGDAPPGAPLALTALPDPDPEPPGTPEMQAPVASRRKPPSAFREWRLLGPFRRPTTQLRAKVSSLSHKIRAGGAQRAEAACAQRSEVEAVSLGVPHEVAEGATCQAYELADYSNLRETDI

In general, inhibition refers to the drop in the measured response relative to a control, in per cent. Broadly, the IC50 is the concentration that gives 50% inhibition. As for `CCCOc1ccc([C@H]2[C@H](C(=O)O)[C@@H](c3ccc4c(c3)OCO4)CN2CC(=O)Nc2c(CC)cccc2CC)cc1` [A-192621], the inhibition in test [1] is 4.29%; in [2] it was 6.79%; in test [4] it was 9.55%; in test [5], 9.89%; in [6] it was 12.8%; in [7], -5.22%. Further, the inhibition was 10.6% in [8]; -1.79% in [9]; -2.22% in [10]; 16.5% in the test listed under Rattus norvegicus; 19.6% in test [11]; -5.3% in test [12]. Moreover, the inhibition in test [13] was 4.31%. Besides, in [3], the concentration for half-maximal inhibition (IC50) is 6.5 nM (active).
